According to US8476449B2, “Radioactive iodine labeled organic compound or salt thereof” (Nihon Medi-Physics Co., Ltd., priority 2010, dated 2013):
Read-outs that look alike come from different tables or passages of the source. One block for each compound: values may come before it.

Key:
tau protein aggregate [1] = target: T1, tau protein aggregate (Homo sapiens, UniProt P10636); test: Inhibition constant toward tau protein aggregate (thioflavin S competition); type: binding; design: made in house; host or cells: E. coli BL21; conditions: for Ki ratios of Aβ42/Tau: ratio of Ki Aβ42 aggregate to Ki tau protein aggregate; for Ki: thioflavin S as ligand, tau protein aggregate, read-out: Ki values (Tau in Table 5)
T1 sequence (P10636 1-441 isoform P10636-8): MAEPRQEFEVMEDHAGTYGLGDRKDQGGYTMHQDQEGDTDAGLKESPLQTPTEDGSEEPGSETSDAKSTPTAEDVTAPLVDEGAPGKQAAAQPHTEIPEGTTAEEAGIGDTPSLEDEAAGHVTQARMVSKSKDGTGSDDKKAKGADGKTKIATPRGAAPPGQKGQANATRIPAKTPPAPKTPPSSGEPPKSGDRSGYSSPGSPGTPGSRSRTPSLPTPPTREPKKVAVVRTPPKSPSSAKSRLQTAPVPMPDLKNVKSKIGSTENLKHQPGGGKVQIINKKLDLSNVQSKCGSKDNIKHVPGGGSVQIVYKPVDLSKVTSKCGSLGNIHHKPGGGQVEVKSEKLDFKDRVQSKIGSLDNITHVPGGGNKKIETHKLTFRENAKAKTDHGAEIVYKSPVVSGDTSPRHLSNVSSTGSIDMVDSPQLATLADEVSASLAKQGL
Protocol: (§1) First, the dissociation constant (Kd) of thioflavin S used as a competitive ligand was first determined by a saturation experiment in order to calculate inhibition constants of compounds 1 to 3. That is, a mixed solution of a 10 vol % ethanol aqueous solution of thioflavin S (0.1-12.8 μmol/L) and the tau protein aggregate (final concentration 0.2 μmol/L, prepared in Example 9) or the Aβ42 aggregate (final concentration 2.2 μmol/L, prepared in Example 11) was incubated for 30 minutes, and the fluorescence intensity was measured using a fluorescence plate reader (FLEX STATION, Molecular Devices). The fluorescence intensity was measured at Ex 440 nm and Em 510 nm for the tau protein aggregate and Ex 440 nm and Em 490 nm for the Aβ42 aggregate. A saturation curve was prepared using GraphPad Prism, and the Kd value for thioflavin S was calculated.
(§2) Next, a mixed solution of a 10 volt ethanol aqueous solution of thioflavin S (1.5 μmol/L) and a test compound (0.6 nmol/L to 10 μmol/L) together with the tau protein aggregate (final concentration 0.2 μmol/L, prepared in Example 9) or the Aβ42 aggregate (final concentration 10 μg/ml, prepared in Example 11) was incubated for 30 minutes. Then, the fluorescence intensities at Ex 440 nm and Em 510 nm for the tau protein aggregate and Ex 440 nm and Em 490 nm for the Aβ42 aggregate were measured using a fluorescence plate reader (FLEX STATION, Molecular Devices). GraphPad Prism inhibition curves were prepared, and Ki values of compounds 1 to 3 were determined using the above obtained Kd value of thioflavin S.

Aβ42 aggregate [2] = target: T2, Aβ42 aggregate (Homo sapiens, UniProt P05067); test: Inhibition constant toward Aβ42 aggregate (thioflavin S competition); type: binding; conditions: thioflavin S as ligand, read-out: Ki values (Aβ42 in Table 5)
T2 construct: Aβ (1-42) peptide; purchased Peptide Institute, Inc
T2 sequence (P05067 672-713 limits assumed): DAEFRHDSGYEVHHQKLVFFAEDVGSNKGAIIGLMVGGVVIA
Protocol: as §1, §2

tau protein aggregate [3] = target: T1, tau protein aggregate; test: Competitive inhibition experiment using thioflavin S (ThS) as ligand, fluorescence spectra; type: binding; design: made in house; host or cells: E. coli BL21; conditions: tau protein aggregate 0.2 μmol/L, thioflavin S 1.5 μmol/L, compound 0.1-2.7 μmol/L, excitation 440 nm
Protocol: Tau-441 expression vector (provided by Graduate School of Medicine, Osaka City University) was transferred to E. coli (BL21), culturing was carried out, and a tau protein was extracted and purified. Heparin (0.1 mg/mL) was added to the purified tau protein (1 mg/mL), and incubation in a 50 mmol/L MES buffer (pH 6.8, 100 mmol/L sodium chloride, 0.5 mmol/L EGTA) at 37° C. was carried out for 3 days, thus preparing an aggregate. Formation of the tau protein aggregate was confirmed by SDS-PAGE and thioflavin S fluorescence assay.
A mixed solution (550 μL) of the tau protein aggregate (final concentration […]) thus prepared, thioflavin S (Sigma Aldrich, final concentration 1.5 μmol/L), and compound 1, compound 2, or compound 3 solution at various concentrations (each having final concentrations of 0 to 2.7 μmol/L) was incubated for 30 minutes, and fluorescence spectra at an excitation wavelength of 440 nm were measured using a fluorescence spectrometer (RF-5300PC, Shimadzu Corporation).
In FIGS. 3 to 5, a is a fluorescence spectrum of a sample (sample I) containing only thioflavin S at 1.5 μmol/L, and b is a fluorescence spectrum of a sample (sample II) that is 0.2 μmol/L of the tau protein aggregate in sample I. In FIG. 3, c is a fluorescence spectrum of a sample that is 0.1 μmol/L of compound 1 in sample II, d is a fluorescence spectrum of a sample that is 0.3 μmol/L of compound 1 in sample II, e is a fluorescence spectrum of a sample that is 0.9 μmol/L of compound 1 in sample II, and f is a fluorescence spectrum of a sample that is 2.7 μmol/L of compound 1 in sample II. In FIG. 4, c is a fluorescence spectrum of a sample that is 0.1 μmol/L of compound 2 in sample II, d is a fluorescence spectrum of a sample that is 0.3 μmol/L of compound 2 in sample II, e is a fluorescence spectrum of a sample that is 0.9 μmol/L of compound 2 in sample II, and f is a fluorescence spectrum of a sample that is 2.7 μmol/L of compound 2 in sample II. […]

[4] = tested on: phosphorylated tau protein; test: In vitro autoradiography using Alzheimer's disease patient-derived brain slice; type: binding, human; conditions: hippocampus slice of Alzheimer's disease patient, 3.07 kBq/mL, 1 hour
Protocol: A postmortem brain slice (paraffin-embedded slice) of the hippocampus of an Alzheimer's disease patient was purchased from BioChain. The brain slice was deparaffinized, a 10% ethanol-containing PBS solution (3.07 kBq/mL (0.083 μCi/mL)) of radioactive iodine-labeled compound 3 was added thereto, and a reaction was carried out for 1 hour. Subsequently, the sample was washed in sequence with a saturated lithium carbonate 50 vol % ethanol aqueous solution (2 minutes×2), a 50 volt ethanol aqueous solution (2 minutes×2), and purified water (30 seconds×2). The sample was exposed to light on an imaging plate for 48 hours, and analyzed using a bioimaging analyzer (model: BAS-5000, Fuji Photo Film Co., Ltd.). Furthermore, an adjacent slice was stained by an anti-phosphorylated tau protein antibody (AT8, Thermo).

[5] = mice
Protocol: Mice were decapitated after 2, 10, 30, and 60 minutes, and then each organ was then removed after blood collection, and radiation counts were measured in a γ counter.

Aβ42 aggregate [6] = target: T2, Aβ42 aggregate; test: Evaluation experiment of binding to amyloid β (filter radioactivity); conditions: Aβ42 aggregate 30 nmol/L, incubation 3 hours
Protocol: 0.5 mg of Aβ (1-42) peptide (purchased from Peptide Institute, Inc.) was dissolved in 2 mL of a PBS buffer containing 1 mmol/L of EDTA and incubated at 37° C. for 42 hours, thus preparing an Aβ42 aggregate. A glass tube was charged with a 10 vol % ethanol aqueous solution (900 μL), Aβ42 aggregate (50 μL, final concentration 30 nmol/L), and radioactive iodine-labeled compound 1, radioactive iodine-labeled compound 2, or radioactive iodine-labeled compound 3 (each 50 μL, 0.018-0.097 μCi), and incubation was carried out for 3 hours. B/F separation was carried out using a cell harvester (Brandel, M-24), and the radioactivity on the filter was measured in a γ counter. The proportion (%) of the radioactivity count on the filter relative to the radioactivity count of each sample used was determined, and binding of each compound to the Aβ42 aggregate was evaluated.
As a control, 4-dimethylamino-4′-iodochalcone (hereinafter, called a chalcone derivative) was prepared in accordance with a method described in the literature (Ono et al., Bioorg Med Chem, 15, 6802-6809, 2007), and the same experiment was carried out (radioactivity count in sample: […]-0.37 kBq (0.023-0.01 μCi)).

tau protein aggregate [7] = target: T1, tau protein aggregate; conditions: tau 0.37 μmol/L, incubated 1 to 1.5 hours, PD-10 column
Protocol: Mixed solutions of a tau protein aggregate (final concentration 0.37 μmol/L, prepared in Example 9) or an non-aggregated tau protein (final concentration 0.37 μmol/L) and radioactive iodine-labeled compound 1 (2.0 kBq (0.055 μCi)), radioactive iodine-labeled compound 2 (20 kBq (0.55 μCi)) or radioactive iodine-labeled form 3 (2.0 kBq (0.055 μCi)) were incubated for 1 hour to 1.5 hours, and then subjected to size exclusion chromatography (PD-10 column (GE Healthcare Japan), eluent: phosphate buffered-saline (PBS)). Subsequently, the radioactivity of an eluted fraction of the tau protein aggregate or the non-aggregated tau protein was measured in a γ counter.

[8] = 2 minutes after tail vein administration
[9] = 10 minutes after tail vein administration
[10] = 30 minutes after tail vein administration
[11] = 60 minutes after tail vein administration

- Ki ratios of Aβ42/Tau (tau protein aggregate [1]): 1.54
- Ki (tau protein aggregate [1]): 489 nM
- Ki (Aβ42 aggregate [2]): 752 nM
SMILES: CCOC(=O)CN1C(=O)/C(=C/c2ccc(-c3cccc(I)c3)o2)SC1=S [Compound 1, (Z)-ethyl-2-(5-((5-(3-iodophenyl)furan-2-yl)methylene)-4-oxo-2-thioxothiazolidin-3-yl)acetate]
- Inhibition of binding of tau protein aggregate to thioflavin S (fluorescence spectra) (tau protein aggregate [3]): inhibition of binding of a tau protein aggregate to thioflavin S

- Ki ratios of Aβ42/Tau (tau protein aggregate [1]): 5.57
- Ki (tau protein aggregate [1]): 155 nM
- Ki (Aβ42 aggregate [2]): 864 nM
SMILES: CCOC(=O)CN1C(=O)/C(=C/c2ccc(-c3cccc(I)c3)o2)NC1=S [Compound 2, (Z)-ethyl-2-(4-((5-(3-iodophenyl)furan-2-yl)methylene)-5-oxo-2-thioxoimidazolidin-1-yl)acetate]
- Inhibition of binding of tau protein aggregate to thioflavin S (fluorescence spectra) (tau protein aggregate [3]): inhibition of binding of a tau protein aggregate to thioflavin S

SMILES: O=C1/C(=C/c2ccc(-c3cccc([125I])c3)o2)NC(=S)N1CCc1c[nH]cn1 [Radioactive iodine-labeled compound 3, (Z)-3-(2-(1H-Imidazol-4-yl)ethyl)-5-((5-(3-(^125I)iodophenyl)furan-2-yl)methylene)-2-thioxoimidazolidin-4-one]
- Radioactivity distribution on brain slice vs anti-phosphorylated tau antibody (AT8) staining [4]: coincided with the distribution (FIG. 10b) of the phosphorylated tau protein
- Amount of radioactivity in organ: Blood [5, 8]: 8.16 ± 1.21 % ID/g
- Amount of radioactivity in organ: Blood [5, 9]: 2.77 ± 0.21 % ID/g
- Amount of radioactivity in organ: Blood [5, 10]: 2.11 ± 0.28 % ID/g
- Amount of radioactivity in organ: Blood [5, 11]: 1.48 ± 0.27 % ID/g
- Amount of radioactivity in organ: Brain [5, 8]: 1.54 ± 0.10 % ID/g
- Amount of radioactivity in organ: Brain [5, 9]: 1.30 ± 0.12 % ID/g
- Amount of radioactivity in organ: Brain [5, 10]: 0.66 ± 0.08 % ID/g
- Amount of radioactivity in organ: Brain [5, 11]: 0.25 ± 0.02 % ID/g
- Amount of radioactivity in organ: Heart [5, 8]: 8.48 ± 0.97 % ID/g
- Amount of radioactivity in organ: Heart [5, 9]: 2.78 ± 0.19 % ID/g
- Amount of radioactivity in organ: Heart [5, 10]: 1.73 ± 0.18 % ID/g
- Amount of radioactivity in organ: Heart [5, 11]: 1.30 ± 0.37 % ID/g
- Amount of radioactivity in organ: Intestine [5, 8]: 2.55 ± 0.16 % ID/g
- Amount of radioactivity in organ: Intestine [5, 9]: 7.41 ± 1.21 % ID/g
- Amount of radioactivity in organ: Intestine [5, 10]: 17.3 ± 1.67 % ID/g
- Amount of radioactivity in organ: Intestine [5, 11]: 23.6 ± 2.39 % ID/g
- Amount of radioactivity in organ: Kidney [5, 8]: 12.5 ± 0.76 % ID/g
- Amount of radioactivity in organ: Kidney [5, 9]: 7.34 ± 0.70 % ID/g
- Amount of radioactivity in organ: Kidney [5, 10]: 4.97 ± 0.71 % ID/g
- Amount of radioactivity in organ: Kidney [5, 11]: 3.37 ± 0.30 % ID/g
- Amount of radioactivity in organ: Liver [5, 8]: 35.0 ± 2.27 % ID/g
- Amount of radioactivity in organ: Liver [5, 9]: 33.3 ± 1.41 % ID/g
- Amount of radioactivity in organ: Liver [5, 10]: 27.2 ± 2.05 % ID/g
- Amount of radioactivity in organ: Liver [5, 11]: 22.8 ± 2.13 % ID/g
- Amount of radioactivity in organ: Lung [5, 8]: 11.4 ± 1.55 % ID/g
- Amount of radioactivity in organ: Lung [5, 9]: 4.39 ± 0.42 % ID/g
- Amount of radioactivity in organ: Lung [5, 10]: 3.00 ± 0.27 % ID/g
- Amount of radioactivity in organ: Lung [5, 11]: 2.03 ± 0.14 % ID/g
- Amount of radioactivity in organ: Pancreas [5, 8]: 3.30 ± 0.86 % ID/g
- Amount of radioactivity in organ: Pancreas [5, 9]: 2.15 ± 0.23 % ID/g
- Amount of radioactivity in organ: Pancreas [5, 10]: 1.15 ± 0.18 % ID/g
- Amount of radioactivity in organ: Pancreas [5, 11]: 0.86 ± 0.08 % ID/g
- Amount of radioactivity in organ: Spleen [5, 8]: 9.23 ± 0.63 % ID/g
- Amount of radioactivity in organ: Spleen [5, 9]: 10.9 ± 2.78 % ID/g
- Amount of radioactivity in organ: Spleen [5, 10]: 8.51 ± 2.68 % ID/g
- Amount of radioactivity in organ: Spleen [5, 11]: 8.46 ± 2.57 % ID/g
- Amount of radioactivity in organ: Stomach [5, 8]: 1.33 ± 0.25 % ID/g
- Amount of radioactivity in organ: Stomach [5, 9]: 2.67 ± 1.59 % ID/g
- Amount of radioactivity in organ: Stomach [5, 10]: 4.55 ± 1.28 % ID/g
- Amount of radioactivity in organ: Stomach [5, 11]: 7.45 ± 5.07 % ID/g
- Binding to the Aβ42 aggregate (proportion of radioactivity count on the filter) (Aβ42 aggregate [6]): significantly lower
- Radioactivity of eluted fraction: aggregated tau vs non aggregated tau vs buffer (tau protein aggregate [7]): specifically binding to a tau protein aggregate
